Values belong to the compound of their own block, whether it stands above or below them.
How the values were obtained:
[1] = tested on: platelets; experiment: Controlled platelet stimulation, flow cytometry of pPD-L1; format: cell-based, human; details: 10 μM TRAP-6, 2.5 μM ADP or 5 μg/mL collagen for 2 minutes, NSCLC patient platelets
Protocol: Platelets were obtained from healthy donors (not taking any medication for at least 10 days) and NSCLC patients after informed writing consent. Citrated blood was briefly centrifuged for 20 min at 120×g, the upper fraction was harvested as platelet-rich plasma (PRP). Platelets were washed twice with citrate wash buffer (128 mmol/L NaCl, 11 mmol/L glucose, 7.5 mmol/L Na2HPO4, 4.8 mmol/L sodium citrate, 4.3 mmol/L NaH2PO4, 2.4 citric acid, 0.35% bovine serum albumin, and 50 ng/ml prostaglandin E1 (PGE1)). […] For platelet activation 10 μM of the Thrombin Receptor Activator Peptide 6 (TRAP-6), a protease-activated receptor 1 (PAR1) agonist, 2.5 μM ADP or 5 μg/mL Collagen was added to the platelets for 2 minutes. Platelets were fixed by 2% paraformaldehyde for 10 min and washed twice with PBS containing 1% FCS.
Flow cytometry was performed using fluorescence-conjugates or specific mAb and their controls followed by species-specific conjugate (Table 2) using a FACS Cantoll flow cytometer […] or a LSRFortessa (Becton Dickinson) from the flow cytometer facility Tuebingen.
Positive cells in percentage (%) were calculated as follows: Surface expression in percent obtained with the specific antibody—surface expression in percent obtained with isotype control. Platelets were preselected by CD41a^+ and CD62P^− (resting) or CD62P^+ (activated). Data analysis was performed using FlowJo software (v.10). In order to verify the reproducibility of the inventors' flow cytometry system, the inventors performed a Bland-Altman analysis (FIG. 11 f). For immunophenotyping of PBMC subsets of lung cancer patients and healthy control donors were identified by counterstaining with CD3-PECy5 (BD biosciences, San Diego, CA), CD19-APC/Fire750, CD4-Pacific Blue, CD8a-BV605, CD56-PECy7, CD14-BV785, HLA-DR-BV650 (Biolegend, San Diego, CA) and CD16-FITC (Invitrogen). PD-1 and PDL-1 expression as well as activation levels were analyzed using a PD-1-APC or PDL-1-APC and a CD69-PE antibody (BD biosciences), respectively. Isotype controls were obtained from BD biosciences. […]

[2] = tested on: platelet adhesion to fibronectin; experiment: Platelet adhesion to fibronectin-coated surface with platelet-blocking agents; format: cell-based, human; details: washed platelets pretreated 30 minutes at 37° C.; 5 μg/mL anti-CD42b, 20 μg/mL anti-integrin β1 and anti-Integrin α5, 1 μg/mL Tirofiban
Protocol: To prepare fibronectin matrices, plates were coated with a human plasma fibronectin purified protein (R&D, Minneapolis, MN, USA), (concentration 50 μg/cm^2) for 120 min. For blocking of GPIb-IX-V complex, α5β1 or GPIIbIIIa, washed platelets (8×10^7/mL) were pretreated with 5 μg/mL anti-CD42b (clone: AK2), 20 μg/mL anti-integrin β1 (clone: P4C10) and anti-Integrin α5 (clone: JBS5), 1 μg/mL Tirofiban or corresponding control IgG1 (20 μg/mL) for 30 minutes at 37° C. and 7% CO2. After co-incubation with platelets (8×10^7/mL) for 30 min at 37° C. and 7% CO2, non-adherent platelets were removed via three washing steps using PBS. After removal of non-adherent platelets cells were fixed in 2% PFA in PBS (pH 7.4) for 10 min at −20° C. Platelet adhesion to fibronectin fibrils was evaluated by calculating surface coverage area and platelet count/FoV and from microscopic images using an ImageJ script (v. 1.52).

[3] = tested on: protein translation in platelets; experiment: PD-L1 on cycloheximide pre-treated platelets after co-incubation with PD-L1-GFP transfected A549 cells; format: cell-based, human; details: platelets pre-treated with 100 μM cycloheximide
Protocol: Tumor cells were coated with platelets as described previously with slight modifications. Briefly summarized, PRP was obtained from fresh whole blood by centrifugation for 20 minutes at 120 g. Platelets were washed twice with citrate wash buffer (128 mmol/L NaCl, 11 mmol/L glucose, 7.5 mmol/L Na2HPO4, 4.8 mmol/L sodium citrate, 4.3 mmol/L NaH2PO4, 2.4 citric acid, 0.35% bovine serum albumin). In some experiments platelets were pretreated with 5 μg/mL anti-CD42b (clone: AK2), 20 μg/mL anti-integrin β1 (clone: P4C10) and anti-Integrin α5 (clone: JBS5) or corresponding control IgG1 (20 μg/mL) for 30 minutes at 37° C. and 7% CO2. Tumor cells were incubated in platelets at a platelet-tumor cell ratio of […] for 30 minutes at 37° C. and 7% CO2. For immunofluorescence microscopy and FACS analysis cells were fixed in 2% PFA in PBS (pH 7.4) for 10 min at −20° C. prior staining.
For overexpression of PD-L1 (CD274) a True-ORF-GFP-tagged expression vector was used (OriGene Technologies, Rockville, MD, USA). Control cells were transfected using a FLAG tag. The FLAG cDNA was generated by PCR and cloned into the PD-L1-GFP vector using AsiSI and MluI restriction sites. Tumor cells were transfected with 2.5 μg DNA (PD-L1-GFP, FLAG-GFP) using Lipofectamine™ 3000, in accordance to the manufacturer's instructions.

[4] = molecular target: T1, PD-L1 on platelets (Homo sapiens, UniProt Q9NZQ7); experiment: NY-ESO-1 specific CD4+ TEM co-incubated with PD-L1 positive platelets (IFNγ and TNFα); format: cell-based; details: pPD-L1 positive platelets pre-treated with Atezolizumab 100 μg/mL for 30 min, NY-ESO-1 peptides
T1 construct: PD-L1 positive platelets from NSCLC patients were pre-treated with the anti-PD-L1 mAB Atezolizumab; endogenous in cells; host or cells: platelets from the peripheral blood of NSCLC patients
Protocol: The generation of NY-ESO-1-specific T cells was performed using as described previously. In brief, PBMCs from a healthy donor (1×10^7/mL) were stimulated using pools of NY-ESO-1 overlapping peptides (1 μg/mL). The NY-ESO-1 overlapping peptide pool of 15 amino acid length (11 amino acid overlap) was purchased via Miltenyi Biotec. The cells were cultured in RPMI 1640 containing 10% human AB-serum and 1% L-glutamin in the presence of 10 U/mL recombinant IL-2 and 10 ng/ml II-7. Culture medium was replaced every third day. After a pre-sensitization period of 7-14 days, NY-ESO-1 specific, IFNγ^+ T cells were enriched after re-stimulation with NY-ESO-1 peptide pool for 6 h using CliniMACS® (Miltenyi Biotec) technique as reported previously. After enrichment, NY-ESO-1 specific T cells were expanded for 14 days in the presence of IL-7 (10 ng/ml), IL-15 (10 ng/mL) and IL-2 (50 U/mL). T cell specificity was analyzed via intracellular IFNγ staining as stated above. For further characterization of the T-cells the differentiation markers anti-CD45RO, mouse (1:200, clone: HI100), anti-CD62L, mouse (1:400, clone: DREG-56), anti-CD28, mouse (1:200, clone: CD28.2) and anti-CD27, mouse (1:200, clone: M-T271) were co-analyzed by flow cytometry. […] NY-ESO-1 specific T cell activity was determined by intracellular TNFα and IFNγ quantified via flow cytometry as described above.

[5] = molecular target: T1, PD-L1 on platelets; experiment: IFNγ ELISPOT and cytokine staining of EBV/CMV peptide-stimulated T cells co-incubated with PD-L1 positive platelets; format: cell-based; details: platelets from NSCLC patients pre-treated 30 min, EBV/CMV-derived peptides, IFNγ and TNFα
Protocol: Freshly thawed (ex vivo) PBMCs from healthy donors were analyzed by enzyme-linked immunospot (ELISPOT) assay in duplicates. Interferon γ (IFNγ) ELISPOT assays in the inventors' study were performed as described previously. In brief, 96-well nitrocellulose plates (Millipore) were coated with 1 mg/mL anti-IFNγ mAb (Mabtech) and incubated overnight at 4° C. In a next step, plates were blocked with human serum (10%) for 2 hours at 37° C. PBMCs (2.5×10^5 cells per well) were pulsed with an EBV/CMV epitope mix containing the frequently recognized peptides BRLF109-117 […] (SEQ ID NO: 11) (A*02) peptide and CMV pp65 (A*02) peptide NLVPMVATV (SEQ ID NO: 12) and incubated with or without platelets (ratio 1:50) for 24 hours. Phytohemagglutinin was used as positive control. HLA-A*02 (KLFEKVKEV (SEQ ID NO: 13))- and B*07 (KPSEKIQVL (SEQ ID NO: 14))-restricted control peptides derived from benign tissues (HV-exclusive HLA ligands) served as negative control. […] Readout was performed according to the manufacturer's instructions. Spots were counted using an ImmunoSpot S5 analyzer (CTL).
Peptide-specific T cells were further analyzed by intracellular cytokine and cell surface marker staining. […] Viable cells were determined using Aqua live/dead (1:400 dilution, Invitrogen). Samples were analyzed on a FACS Canto II cytometer (BD) and evaluated using FlowJo software v. […]

T1 sequence (Q9NZQ7 19-290): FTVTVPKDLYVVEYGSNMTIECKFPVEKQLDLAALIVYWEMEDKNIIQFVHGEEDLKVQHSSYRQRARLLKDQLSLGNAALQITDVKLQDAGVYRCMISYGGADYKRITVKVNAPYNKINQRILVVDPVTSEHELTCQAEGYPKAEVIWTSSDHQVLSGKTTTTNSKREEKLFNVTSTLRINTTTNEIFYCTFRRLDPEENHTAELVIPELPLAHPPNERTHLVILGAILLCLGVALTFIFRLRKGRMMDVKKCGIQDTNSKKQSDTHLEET

Compound: Nc1ncnc2c1ncn2[C@@H]1O[C@H](COP(=O)(O)OP(=O)(O)O)[C@@H](O)[C@H]1O [ADP]
- pPD-L1 expression on the platelet surface upon platelet stimulation [1]: maximized

Compound: CCCCS(=O)(=O)N[C@@H](Cc1ccc(OCCCCC2CCNCC2)cc1)C(=O)O [Tirofiban]
- platelet adhesion to fibronectin [2]: only marginally reduced

Compound: C[C@@H]1C[C@@H]([C@H](O)CC2CC(=O)NC(=O)C2)C(=O)[C@@H](C)C1 [cycloheximide]
- PD-L1-GFP expression in platelets [3]: did not result in a reduction

- T cell (CD4+ TEM) activity, IFNγ and TNFα release [4]: restored
- T cell inhibitory effect of PD-L1 expressing platelets [5]: abolished
Compound: Atezolizumab

Compound: Thrombin Receptor Activator Peptide 6 [TRAP-6]
- pPD-L1 expression on the platelet surface upon platelet stimulation [1]: maximized

Compound: collagen
- pPD-L1 expression on the platelet surface upon platelet stimulation [1]: maximized

From US20250020650A1, “METHOD OF PREDICTING A PATIENT'S BENEFIT FROM THERAPY WITH AN IMMUNE CHECKPOINT INHIBITOR” (EBERHARD KARLS UNIVERSITAET TUEBINGEN MEDIZINISCHE FAKULTAET, priority 2021, published 2025)
